From US20090170945A1, “[…]” (priority 2007, published 2009)
Where a name gives a salt, the structure may show the parent alone.

How the values were obtained:
[1] = cited from earlier work
[2] = Solubility in organic solvents; type: physicochemical
Description: Pregabalin is obtainable by known methods, such as those described in EPB 641 330. […].
Suitable solvents include aliphatic cyclic ethers (e.g. dioxane), esters, and ketones (each of the ethers, esters, and ketones having 3 to 12 carbon atoms), and mixtures thereof as well as mixtures with water. The solubility may be enhanced by heating the reaction mixture. The presence of water enhances the solubility of both reagents (i.e., the pregabalin and the corresponding acid) substantially. Due to the high water solubility of the salt, however, the amount of water in the solvent should be minimized prior to the isolation of the salt (e.g. by evaporation of the solvent prior to the isolation), and preferably water is excluded from the solvent entirely. On the other hand, it was shown that the pregabalin salts of the invention are only slightly soluble in aliphatic ethers (such as diisopropyl ether and methyl tert. butyl ether) so that aliphatic ethers may be used as solvents in the salt forming reaction or as antisolvents for the isolation. Furthermore, alcohols as solvents are preferably avoided, as they may be esterified in the presence of the sulfonic acid to yield corresponding esters as byproducts. Thus alcoholic solvents and other non-inert solvents (e.g. solvents that will react under the salt forming conditions) are generally avoided.

[3] = Hygroscopicity of solid state salts under storage at ambient and humid conditions; type: physicochemical; details: for hygroscopicity: storage at ambient and humid (40 C, 75% RH) conditions
Experimental: Hygroscopicity of solid state pregabalin salts that passed the salt formation criterion were tested under storage at ambient and humid (40 C, 75% RH) conditions.

[4] = Formation of impurities during salt formation (HPLC) and stability studies; details: for stability / impurities during salt formation: HPLC after the salt formation
Experimental: Formation of impurities during the salt forming process was tested by analyzing the samples by HPLC after the salt formation. Salts were also subjected to stability studies in the solid state; particularly, they were subjected to storage at 40 C and 75% RH in the open dish.

[5] = per WO 96/40617; cited from earlier work
[6] = Thermogravimetric measurements

CC(C)C[C@H](CN)CC(=O)O [Pregabalin, S-(+)-4-amino-3-(2-methylpropyl)butanoic acid]
pKa (acidic carboxy group) ([1]; first of the two printed pKa values): 4.2
pKa (basic amino group) ([1]; second of the two printed pKa values): 10.6
solubility in ethanol [2]: poorly soluble

CC(C)C[C@H](CN)CC(=O)O.O=S(=O)(O)CCS(=O)(=O)O [ethane-1,2-disulfonic acid salt]
hygroscopicity [3]: very hygroscopic
water uptake on storage in air ([3]; storage in air (R.T.) for 36 days): formation of a dihydrate

CC(C)C[C@H](CN)CC(=O)O.O=S(=O)(O)c1cccc2c(S(=O)(=O)O)cccc12 [napadisylate, pregabalin 1,5-naphthalene disulfonate]
solid state stability during prolonged storage ([4]; 40 C and 75% RH, open dish): unstable
stability / impurities during salt formation [4]: stable

CC(C)C[C@H](CN)CC(=O)O [pregabalin hydrochloride]
hygroscopicity [3]: liquefied

CC(C)C[C@H](CN)CC(=O)O.O=C(O)[C@@H](O)c1ccccc1 [pregabalin mandelate, Pregabalin (S)-mandelate]
stability in aqueous solutions ([4]; aqueous solution, lactam impurity): unstable
hydrolysis in water to free pregabalin [5]: easily hydrolyzes in water

Pregabalin Benzene Sulfonate [pregabalin besylate]
stability in solid state and in solution (overall statement) [4]: stable in both the solid state and in solution
stability / impurities during salt formation [4]: stable
hygroscopicity [3]: non-hygroscopic
thermal stability (thermogravimetry), stable up to [6]: 160-170 °C

Pregabalin p-toluene Sulfonate [pregabalin tosylate]
stability in solid state and in solution (overall statement) [4]: stable in both the solid state and in solution
stability / impurities during salt formation [4]: stable
thermal stability (thermogravimetry), stable up to [6]: 160-170 °C

fumarate
stability / impurities during salt formation [4]: formed with by-products

maleate
stability / impurities during salt formation [4]: formed with by-products

pregabalin mesylate
stability / impurities during salt formation [4]: stable
